Assay results reported in patent publication EP4417602A1, “SUBSTITUTED PYRAZOLE CARBOXAMIDES, SALTS THEREOF AND THEIR USE AS HERBICIDALLY ACTIVE SUBSTANCES” (Bayer AG, priority 2023, dated 2024).

How the values were obtained:
[1] = tested on: VERPE; test: B. Herbicidal post-emergence action on harmful plants (Tables B); format: in vivo, Veronica persica
Experimental: (§1) Seeds of mono- and dicotyledonous weed plants were placed in plastic pots in sandy loam soil (doubly sown with in each case one species of mono- or dicotyledonous weed plants per pot), covered with soil and cultivated in a greenhouse under controlled growth conditions. 2 to 3 weeks after sowing, the test plants were treated at the one-leaf stage. The compounds of the invention, formulated in the form of wettable powders (WP) or as emulsion concentrates (EC), were applied onto the green parts of the plants as aqueous suspension or emulsion with addition of 0.5% additive at a water application rate of 600 liters per hectare (converted). After the test plants had been kept in the greenhouse under optimum growth conditions for about 3 weeks, the activity of the preparations was rated visually in comparison to untreated controls. For example, 100% activity = the plants have died, 0% activity = like control plants. Tables B1 to B12, below, show the effects of selected compounds of the general formula (I) according to table 1 on various harmful plants and an application rate corresponding to 1280 g/ha or below obtained by the experimental procedure mentioned above. Table B1a: post-emergence activity at 1280g/ha against ABUTH in %

[2] = tested on: POAAN; test: A. Herbicidal pre-emergence action on harmful plants (Tables A); format: in vivo, Poa annua
Method in brief: (§2)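 Values are visual percent damage relative to untreated controls, scored ca. 3 weeks after the compound was sprayed on the covering soil of sown pots (sandy loam) at rates up to 1280 g/ha, formulated as WP or EC with 0.5% additive.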

[3] = tested on: STEME; test: as above; format: in vivo, Stellaria media; details: visual grading after ca. 3 weeks vs untreated controls, 100% = plants have died off, 0% = as control plants
Method in brief: as §2

[4] = tested on: ECHCG; test: B. Herbicidal post-emergence action on harmful plants (Tables B); format: in vivo, Echinochloa crus-galli; details: application rate 1280 g/ha; Table B2a
Experimental: as §1

[5] = tested on: ALOMY; test: A. Herbicidal pre-emergence action on harmful plants (Tables A); format: in vivo, Alopecurus myosuroides
Method in brief: as §2

[6] = tested on: ALOMY; test: B. Herbicidal post-emergence action on harmful plants (Tables B); format: in vivo, Alopecurus myosuroides; details: application rate 1280 g/ha; Table B9a
Experimental: as §1

[7] = tested on: DIGSA; test: A. Herbicidal pre-emergence action on harmful plants (Tables A); format: in vivo, Digitaria sanguinalis
Method in brief: as §2

[8] = tested on: ABUTH; test: B. Herbicidal post-emergence action on harmful plants (Tables B); format: in vivo, Abutilon theophrasti; details: application rate 1280 g/ha; Table B1a
Experimental: as §1

[9] = tested on: SETVI; test: A. Herbicidal pre-emergence action on harmful plants (Tables A); format: in vivo, Setaria viridis; details: visual grading after ca. 3 weeks vs untreated controls, 100% = plants have died off, 0% = as control plants
Method in brief: as §2

[10] = tested on: MATIN; test: as above; format: in vivo, Matricaria inodora; details: visual grading after ca. 3 weeks vs untreated controls, 100% = plants have died off, 0% = as control plants
Method in brief: as §2

[11] = tested on: MATIN; test: B. Herbicidal post-emergence action on harmful plants (Tables B); format: in vivo, Matricaria inodora; details: application rate 1280 g/ha; Table B4a
Experimental: as §1

[12] = tested on: ECHCG; test: A. Herbicidal pre-emergence action on harmful plants (Tables A); format: in vivo, Echinochloa crus-galli; details: visual grading after ca. 3 weeks vs untreated controls, 100% = plants have died off, 0% = as control plants
Method in brief: as §2

[13] = tested on: POAAN; test: B. Herbicidal post-emergence action on harmful plants (Tables B); format: in vivo, Poa annua
Method in brief: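 Greenhouse weeds grown in sandy loam were sprayed post-emergence at the one-leaf stage, 2-3 weeks after sowing. Compounds were applied as WP or EC in water with 0.5% additive at 600 L/ha, at 1280 g/ha or below. Visual damage was rated after about 3 weeks versus untreated plants (0-100%).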

[14] = tested on: LOLRI; test: A. Herbicidal pre-emergence action on harmful plants (Tables A); format: in vivo, Lolium rigidum; details: visual grading after ca. 3 weeks vs untreated controls, 100% = plants have died off, 0% = as control plants
Method in brief: as §2

[15] = tested on: SETVI; test: B. Herbicidal post-emergence action on harmful plants (Tables B); format: in vivo, Setaria viridis; details: application rate 1280 g/ha; Table B5
Experimental: as §1

[16] = tested on: AMARE; test: A. Herbicidal pre-emergence action on harmful plants (Tables A); format: in vivo, Amaranthus retroflexus
Description: Seeds of mono- and dicotyledonous weed plants were sown in plastic pots (double sowings with one species of mono- and one species of dicotyledonous weed plants per pot), in sandy loam, and covered with soil. The compounds according to the invention, formulated in the form of wettable powders (WP) or as emulsifiable concentrates (EC), were applied to the surface of the covering soil as aqueous suspension or emulsion, with the addition of 0.5% of an additive, at an application rate of 6001 of water per hectare (converted). Following treatment, the pots were placed in a greenhouse and kept under optimum growth conditions for the test plants. The visual grading of the damage to the test plants was carried out after ca. 3 weeks in comparison to untreated controls (herbicidal effect in percent (%): 100% effect = plants have died off, 0% effect = as control plants). Tables A1 to A12, below, show the effects of selected compounds of the general formula (I) according to table 1 on various harmful plants and an application rate corresponding to 1280 g/ha or below obtained by the experimental procedure mentioned above. Table A1: pre-emergence activity at 1280g/ha against ABUTH in %

[17] = tested on: STEME; test: B. Herbicidal post-emergence action on harmful plants (Tables B); format: in vivo, Stellaria media; details: application rate 1280 g/ha; Table B6
Experimental: as §1

[18] = tested on: DIGSA; test: as above; format: in vivo, Digitaria sanguinalis; details: application rate 1280 g/ha; Table B12a
Experimental: as §1

[19] = application rate 1280 g/ha, Table B11a
[20] = application rate 320 g/ha, Table A7b
[21] = application rate 1280 g/ha, visual grading after ca. 3 weeks vs untreated controls, 100% = plants have died off, 0% = as control plants
[22] = application rate 1280 g/ha, Table A9a
[23] = application rate 1280 g/ha, Table A12a
[24] = application rate 320 g/ha, Table A12b
[25] = application rate 1280 g/ha, Table B7a
[26] = application rate 80 g/ha, Table A7c
[27] = application rate 80 g/ha, Table A12c

SMILES	pre-emergence activity against POAAN [2, 20] [%]	pre-emergence activity against POAAN [2, 21] [%]	pre-emergence activity against STEME ([3]; application rate 1280 g/ha) [%]	post-emergence activity against ECHCG [4] [%]	pre-emergence activity against ALOMY [5, 22] [%]	pre-emergence activity against DIGSA [7, 23] [%]	pre-emergence activity against SETVI ([9]; application rate 320 g/ha) [%]	pre-emergence activity against SETVI ([9]; application rate 1280 g/ha) [%]	pre-emergence activity against MATIN ([10]; application rate 1280 g/ha) [%]	post-emergence activity against MATIN [11] [%]	pre-emergence activity against ECHCG ([12]; application rate 1280 g/ha) [%]	pre-emergence activity against DIGSA [7, 24] [%]	post-emergence activity against POAAN [13, 25] [%]	pre-emergence activity against LOLRI ([14]; application rate 320 g/ha) [%]	pre-emergence activity against LOLRI ([14]; application rate 1280 g/ha) [%]	post-emergence activity against SETVI [15] [%]	pre-emergence activity against POAAN [2, 26] [%]	pre-emergence activity against MATIN ([10]; application rate 320 g/ha) [%]	pre-emergence activity against STEME ([3]; application rate 320 g/ha) [%]	pre-emergence activity against ECHCG ([12]; application rate 320 g/ha) [%]	also measured
Cn1cc(C(=O)N2CCCC2Cc2cc(F)ccc2F)c(COc2ccccc2)n1 (racemic) [Example I-010]	90	100	90	90	100	90	–	–	–	–	–	–	–	–	–	–	–	–	–	–	post-emergence activity against VERPE [1, 19]: 90%; post-emergence activity against ALOMY [6]: 90%; post-emergence activity against ABUTH [8]: 90%
COCc1nn(C)cc1C(=O)N1CCCC1C(C)c1ccccc1F (centres unmarked) [Example I-021]	100	100	–	90	90	100	100	100	90	90	100	90	90	100	100	90	–	–	–	–	–
COCc1nn(C)cc1C(=O)N1CCCC1Cc1ccccc1C (single isomer, unassigned) [Example I-084]	100	100	90	90	90	90	90	100	90	90	90	90	100	90	100	–	100	90	90	90	post-emergence activity against VERPE ([1]; application rate 320 g/ha, Table B11b): 90%; post-emergence activity against VERPE [1, 19]: 90%; pre-emergence activity against SETVI ([9]; application rate 80 g/ha): 90%; pre-emergence activity against MATIN ([10]; application rate 80 g/ha): 90%; pre-emergence activity against AMARE ([16]; application rate 320 g/ha, Table A8b): 90%; pre-emergence activity against AMARE [16, 21]: 90%; post-emergence activity against STEME [17]: 90%; post-emergence activity against DIGSA [18]: 90%; pre-emergence activity against ECHCG ([12]; application rate 80 g/ha): 90%; pre-emergence activity against DIGSA [7, 27]: 90%; post-emergence activity against POAAN ([13]; application rate 320 g/ha, Table B7b): 100%; post-emergence activity against ABUTH [8]: 90%
COCc1nn(C)cc1C(=O)N1CCCC1Cc1cccc(F)c1F (single isomer, unassigned) [Example I-088]	100	100	90	–	100	100	100	100	90	90	100	100	90	100	100	90	90	90	90	90	pre-emergence activity against SETVI ([9]; application rate 80 g/ha): 90%; pre-emergence activity against MATIN ([10]; application rate 80 g/ha): 90%; pre-emergence activity against STEME ([3]; application rate 80 g/ha): 90%; pre-emergence activity against ALOMY ([5]; application rate 320 g/ha, Table A9b): 90%; post-emergence activity against DIGSA [18]: 90%; pre-emergence activity against ECHCG ([12]; application rate 80 g/ha): 90%; pre-emergence activity against DIGSA [7, 27]: 100%; pre-emergence activity against LOLRI ([14]; application rate 80 g/ha): 90%
COCc1nn(C)cc1C(=O)N1CCCC1C(O)c1ccccc1F (single isomer, unassigned) [Example I-054]	90	100	90	–	–	100	90	90	90	–	100	90	90	–	90	90	90	90	90	90	–
